Test results taken from PubChem BioAssay (NCI).
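Following 48 hours of exposure in 96-well plates, responses at five concentrations were used to interpolate endpoints linearly. At the TGI there is no net growth.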

Experiments:
Assay in all cases: NCI tumour cell line growth inhibition, 48 h
SK-MEL-28 melanoma = tested on: SK-MEL-28 melanoma
SNB-19 CNS = tested on: SNB-19 CNS
IGROV1 ovarian = tested on: IGROV1 ovarian
NCI-H226 lung = tested on: NCI-H226 lung
NCI-H460 lung = tested on: NCI-H460 lung
HOP-62 NSCLC = tested on: HOP-62 NSCLC
SR leukemia = tested on: SR leukemia
HOP-92 NSCLC = tested on: HOP-92 NSCLC
SNB-75 CNS = tested on: SNB-75 CNS
HCT-116 colon = tested on: HCT-116 colon

| Compound | TGI (SK-MEL-28 melanoma) | TGI (SNB-19 CNS) | TGI (IGROV1 ovarian) | TGI (NCI-H226 lung) | TGI (NCI-H460 lung) | TGI (HOP-62 NSCLC) | TGI (SR leukemia) | TGI (HOP-92 NSCLC) | TGI (SNB-75 CNS) | TGI (HCT-116 colon) |
| --- | --- | --- | --- | --- | --- | --- | --- | --- | --- | --- |
| Cc1cc2c(c(=O)n1C)SCC2 | > 100 µM | > 100 µM | > 100 µM | > 100 µM | > 100 µM | > 100 µM | > 100 µM | > 100 µM | > 100 µM | > 100 µM |
| CC1(C2CCC3(C)OC3C2)CO1 (configuration not stated) | > 100 µM | > 100 µM | > 100 µM | > 100 µM | > 100 µM | > 100 µM | > 100 µM | > 100 µM | > 100 µM | > 100 µM |
| CCN(CC)c1nc(N(C)C)c2ccccc2n1 | > 100 µM | > 100 µM | > 100 µM | 69.3 µM | > 100 µM | > 100 µM | 27.5 µM | > 100 µM | > 100 µM | > 100 µM |
| Cc1ccc(S(=O)(=O)n2cc(C#N)c(C#N)c2)cc1 | 30.8 µM | – | > 100 µM | – | > 100 µM | 68.8 µM | 71 µM | 88 µM | > 100 µM | > 100 µM |
| CN1C(=O)C(O)CC1c1cccc(C(F)(F)F)c1 (configuration not stated) | > 100 µM | > 100 µM | > 100 µM | > 100 µM | > 100 µM | > 100 µM | – | > 100 µM | > 100 µM | > 100 µM |
| CC(C)(C)C1CC[C@H](O)[C@H]([C@H](O)CC2CC(=O)N(c3ccccc3)C(=O)C2)C1 (some centres not stated) | > 100 µM | > 100 µM | > 100 µM | > 100 µM | > 100 µM | > 100 µM | > 100 µM | > 100 µM | > 100 µM | > 100 µM |
| COC(=O)c1c(-c2ccc(Cl)cc2)cc2c3ccccc3n(C)c2c1C(=O)OC | > 100 µM | > 100 µM | > 100 µM | > 100 µM | > 100 µM | > 100 µM | – | > 100 µM | – | > 100 µM |
| CCCNc1ncnc2[nH]ncc12 | > 100 µM | > 100 µM | > 100 µM | – | > 100 µM | > 100 µM | > 100 µM | > 100 µM | > 100 µM | > 100 µM |
| C#CCC1(C(=O)OCC)C(=O)c2ccccc2N(C)C1=O (configuration not stated) | > 100 µM | > 100 µM | > 100 µM | > 100 µM | > 100 µM | – | – | > 100 µM | > 100 µM | – |
| CN(C)C(=S)Oc1ccc2ccc(=O)oc2c1 | > 100 µM | > 100 µM | > 100 µM | > 100 µM | > 100 µM | > 100 µM | > 100 µM | > 100 µM | > 100 µM | > 100 µM |
| Cc1ccccc1OC(C)C(=O)NN1C(=O)CC(=O)N(c2ccccc2)C1=S (configuration not stated) | > 100 µM | > 100 µM | > 100 µM | > 100 µM | > 100 µM | > 100 µM | – | > 100 µM | > 100 µM | > 100 µM |
| CCN(CC)c1ccc2cc(-c3nc4ccccc4c(=O)[nH]3)c(=N)oc2c1 | > 100 µM | > 100 µM | > 100 µM | > 100 µM | > 100 µM | > 100 µM | > 100 µM | > 100 µM | > 100 µM | > 100 µM |
| NCCC1CN(C(=O)OCc2ccccc2)c2ccccc21 (configuration not stated) | 36 µM | > 51.3 µM | 33 µM | 26.8 µM | 43.4 µM | > 54.4 µM | 10.1 µM | 26.9 µM | 43.3 µM | 15.6 µM |
| C(/Cc1ccc2c(c1)OCO2)=N\NC1=NCCCN1 | > 100 µM | > 100 µM | > 100 µM | > 100 µM | > 100 µM | > 100 µM | 70.2 µM | > 100 µM | 81.1 µM | > 100 µM |
| COC(=O)[C@@H]1CN(C(=O)c2ccccc2)C(=O)N1C(=O)OCc1ccccc1 | > 100 µM | > 100 µM | > 100 µM | > 100 µM | > 100 µM | > 100 µM | > 100 µM | > 100 µM | > 100 µM | > 100 µM |
| O=c1cc(NCc2ccncc2)[nH]c(=O)[nH]1 | > 100 µM | > 100 µM | > 100 µM | > 100 µM | > 100 µM | > 100 µM | > 100 µM | > 100 µM | > 100 µM | > 100 µM |
| CCOC(=O)c1cn(C)c(=S)n2c1nc1ccccc12 | > 100 µM | > 100 µM | > 100 µM | > 100 µM | > 100 µM | > 100 µM | > 100 µM | > 100 µM | > 100 µM | > 100 µM |
| Cc1nc2ccc(Cl)cc2c2c1CCN2c1ccccc1 | 28.5 µM | 78.5 µM | > 100 µM | 22 µM | 23.9 µM | 83.8 µM | 36.3 µM | 24.1 µM | > 100 µM | 17.6 µM |
| CSc1nc(NC(C)C)c2c(n1)Sc1nc3ccccc3n1C2O (configuration not stated) | > 100 µM | – | > 100 µM | – | – | > 100 µM | > 100 µM | > 100 µM | 23.4 µM | > 100 µM |
| CCOC(=O)C1(C(F)(F)F)N=C(CC)OC(N2CCOCC2)=N1 (configuration not stated) | > 100 µM | > 100 µM | > 100 µM | – | > 100 µM | – | > 100 µM | > 100 µM | > 100 µM | > 100 µM |
| COC(=O)C1=C(O)C(C(=O)OC)[C@]2(O)[C@H](C(=O)OC)[C@H]1C[C@@H](c1ccc([N+](=O)[O-])cc1)[C@H]2C(=O)OC (some centres not stated) | 50.9 µM | 65.5 µM | 30.5 µM | 65.1 µM | > 100 µM | > 100 µM | – | – | > 100 µM | 32.3 µM |
| NC1=NCC(CN2CCCC2)O1 (configuration not stated) | > 100 µM | > 100 µM | > 100 µM | – | > 100 µM | > 100 µM | > 100 µM | > 100 µM | > 100 µM | > 100 µM |
